This data set can be described thus: Shake-flask liquid distribution ratio (Kd), Hexane:Water:Buffer of 10:9:1. The format is physicochemical. The note with it: THIAA Aug. 5, 2008. As to the method: Several shake-flask experiments were conducted to test several solvent systems and determine the liquid distribution ratio (Kd) and partition coefficient values for optimal separations. Partition coefficient values derived from shake-flask experiments are a reliable predictor of countercurrent chromatographic behavior. Kd is the concentration of the analyte in the upper phase divided by the concentration of the analyte in the lower phase and, in the alternative, may be listed as Ku/l.
General Procedure and Parameters for Shake Flask Experiments: Addition of 1 mL of the stock buffer at a known pH. Addition of the other necessary solvents to make up the system. Addition of the analyte mixture dissolved in hexane at 400 mg/mL. Final analyte concentration in the shake flask is 0.1 mg/mL. The flask was capped and mixed (by a vortex mixer) for 10 seconds. An aliquot was taken from the upper phase for HPLC analysis, and additionally a separate aliquot was taken from the lower phase for HPLC analysis from each flask. Each component was analyzed by HPLC and integrated using Shimadzu Class VP Software version 7.3 SP1.

Take `CC(C)CCC(=O)[C@]1(O)C(O)=C(C(=O)CC(C)C)C(=O)[C@H]1CCC(C)C` [TH 5, (+)-(4R,5S)-3,4-dihydroxy-2-(3-methylbutanoyl)-5-(3-methylbutyl)-4-(4-methylpentanoyl)cyclopent-2-en-1-one]: the “K Value” (pH 4.9) is listed as 32.8, the “K Value” (pH 5.5) was determined as 9.5, the “K Value” (pH 5.6) was found to be 6.6 and the “K Value” (pH 6.0) came to 3.3.

For `CC(C)CCC(=O)[C@@]1(O)C(O)=C(C(=O)C(C)C)C(=O)[C@H]1CCC(C)C` [TH 2, (−)-(4S,5S)-3,4-dihydroxy-2-isobutyryl-5-(3-methylbutyl)-4-(4-methylpentanoyl)cyclopent-2-en-1-one], the “K Value” is, setting by setting: (pH 4.9) 10.8; (pH 5.5) 2.5; (pH 5.6) 1.8; (pH 6.0) 0.9.

Consider `CC(C)CCC(=O)[C@]1(O)C(O)=C(C(=O)C(C)C)C(=O)[C@H]1CCC(C)C` [TH 1, (+)-(4R,5S)-3,4-dihydroxy-2-isobutyryl-5-(3-methylbutyl)-4-(4-methylpentanoyl)cyclopent-2-en-1-one], for which the “K Value” was found to be 16.5 (pH 4.9), 4.2 (pH 5.5), 3.0 (pH 5.6) and 1.5 (pH 6.0).

Take `CCC(C)C(=O)C1=C(O)[C@@](O)(C(=O)CCC(C)C)[C@H](CCC(C)C)C1=O` (single isomer, unassigned; (+)) [TH 4]: the “K Value” runs as follows: (pH 4.9) 55.6; (pH 5.5) 16.1; (pH 5.6) 11.0; (pH 6.0) 5.5.

`CCC(C)C(=O)C1=C(O)C(O)(C(=O)CCC(C)C)C(CCC(C)C)C1=O` (stereo not drawn) [TH 3, trans tetra ad-isoalpha acid]: the “K Value” reads like this: (pH 4.9) 60.3; (pH 5.5) 17.8; (pH 5.6) 11.4; (pH 6.0) 5.5.

The values above are taken from patent US20110275721A1, “METHOD FOR THE PURIFICATION OF SUBSTITUTED CYCLOPENT-2-EN-1-ONE CONGENERS AND SUBSTITUTED 1,3-CYCLOPENTADIONE CONGENERS FROM A COMPLEX MIXTURE USING COUNTERCURRENT SEPARATION” (Metaproteomics, LLC, priority 2008, published 2011).
